Assay results as given in BindingDB's records for doi:10.1021/jm040794i (2005).

Key:
[1] = biological target: Somatostatin receptor type 5 (Homo sapiens, UniProt P35346); experiment: In vitro inhibition of [125I][Leu8,D-Trp22,Tyr25] somatostatin 28 binding to human somatostatin receptor type 5 expressed in CHO-K1 cells; (n=3)
[2] = biological target: Somatostatin receptor type 1 (Homo sapiens, UniProt P30872); experiment: In vitro inhibition of [125I][Leu8,D-Trp22,Tyr25] somatostatin 28 binding to human somatostatin receptor type 1 expressed in CHO-K1 cells; (n=3)
Chain of Somatostatin receptor type 1 (P30872 whole entry): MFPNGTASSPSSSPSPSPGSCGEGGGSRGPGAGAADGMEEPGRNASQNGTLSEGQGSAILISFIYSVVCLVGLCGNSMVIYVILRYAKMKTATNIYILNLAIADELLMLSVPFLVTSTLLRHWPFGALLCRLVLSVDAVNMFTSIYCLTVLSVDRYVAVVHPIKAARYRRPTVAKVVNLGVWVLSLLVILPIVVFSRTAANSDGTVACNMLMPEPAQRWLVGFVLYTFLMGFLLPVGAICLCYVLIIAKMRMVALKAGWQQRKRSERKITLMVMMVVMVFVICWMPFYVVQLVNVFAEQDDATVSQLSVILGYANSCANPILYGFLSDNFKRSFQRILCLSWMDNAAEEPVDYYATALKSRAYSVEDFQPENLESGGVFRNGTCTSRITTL

Chain of Somatostatin receptor type 5 (P35346 whole entry): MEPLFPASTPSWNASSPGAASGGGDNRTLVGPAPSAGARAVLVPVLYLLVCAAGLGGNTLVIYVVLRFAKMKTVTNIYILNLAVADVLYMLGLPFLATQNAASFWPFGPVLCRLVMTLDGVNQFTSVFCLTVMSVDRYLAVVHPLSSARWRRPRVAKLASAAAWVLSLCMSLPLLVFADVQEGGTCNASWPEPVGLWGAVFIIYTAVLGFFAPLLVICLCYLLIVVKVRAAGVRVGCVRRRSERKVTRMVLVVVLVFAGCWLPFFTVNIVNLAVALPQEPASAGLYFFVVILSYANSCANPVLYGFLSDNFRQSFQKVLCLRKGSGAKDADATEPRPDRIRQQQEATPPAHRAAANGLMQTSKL

C[C@@H](O)[C@H](NC(=O)[C@@H]1CSSC[C@H](NC(=O)[C@@H](Cc2ccccc2)NC(=O)CN2CCN(CC(=O)O)CCN(CC(=O)O)CCN(CC(=O)O)CC2)C(=O)N[C@@H](Cc2ccc(O)cc2)C(=O)N[C@H](Cc2c[nH]c3ccccc23)C(=O)N[C@@H](CCCCN)C(=O)N[C@@H]([C@@H](C)O)C(=O)N1)C(=O)O
IC50 [1]: 377 nM

C[C@@H](O)[C@H](NC(=O)[C@@H]1CSSC[C@H](NC(=O)[C@H](N)Cc2ccccc2)C(=O)N[C@@H](Cc2ccc(O)c(I)c2)C(=O)N[C@H](Cc2c[nH]c3ccccc23)C(=O)N[C@@H](CCCCN)C(=O)N[C@@H]([C@@H](C)O)C(=O)N1)C(=O)O [4-[(4R,7S,10S,13R,16S)-19-(2-azaniumyl-3-phenylpropanamido)-4-{[(1S)-1-carboxy-2-hydroxypropyl]carbamoyl}-16-[(4-hydroxy-3-iodophenyl)methyl]-7-(1-hydroxyethyl)-13-(1H-indol-3-ylmethyl)-6,9,12,15,18-pentaoxo-1,2-dithia-5,8,11,14,17-pentaazacycloicosan-10-yl]butan-1-aminium]
IC50 [2]: > 10000 nM
